Laboratory results taken from paper PMC7782687, “Insights into SusCD-mediated glycan import by a prominent gut symbiont” (Nature Communications, 2021).
Where “and” joins values, the source holds several entries; their conditions need not be identical. Equal values may be shown once. Blank lines part the entries; values can stand above or below the molecule they belong to.

Key:
[1] = tested on: B. theta Δ1760 strain; experiment: Growth of Δ1760 (surface endo-levanase deletion) strain on levans from different sources; format: cell-based, Bacteroides thetaiotaomicron; settings: minimal media, anaerobic, 37 °C, replicates 1-3, single wells
Method: Growth curves were performed in an Epoch microplate spectrometer (Biotek Instruments Ltd) with 96-well Costar culture plate (Sigma-Aldrich) inside an anaerobic cabinet at 37 °C (Don Whitley Scientific, A35 workstation). Media were inoculated 1:10 with bacterial cultures previously grown overnight in BHI. Final culture volumes of 200 µl were used, and each condition was performed in triplicate. Optical density at 600 nm was measured in each well at 30 min intervals.
In most cases, the levan used was from Erwinia herbicola (Sigma). For analysis of the growth of the Δ1760 strain, bacterial levans from Bacillus sp. (Montana Polysaccharides) and Zymomonas mobilis[64] (a kind gift from Prof. Dr. Yekta Göksunger, Ege University, Izmir, Turkey) were also used, as well as levan from Timothy grass (Megazyme) and in vitro synthesised levan. In vitro synthesised levan was made using Bacillus subtilis levansucrase incubated with 20% sucrose in PBS for 24 h at 37 °C. Proteinase K (100 µg/ml) was then added to remove the protein, before being precipitated out using 0.5% trichloroacetic acid final. The levan was then extensively dialysed against water and freeze dried.

[2] = target: T1, Bt1763 (SusC) TonB-dependent transporter of the Bacteroides thetaiotaomicron levan utilisation locus (Bacteroides thetaiotaomicron, UniProt Q8A6W3 26-1041); experiment: crystal structure; Bt1762-63 purified from B. theta outer membranes, in 0.4% C8E4; apo and with 2.5 mM β2,6 FOS; 0.15 M sodium formate, 0.1 M HEPES pH 7-7.5, 16-20% PEG 3350; settings: both partners purified
T1 construct: Bt1763 (SusC), TonB-dependent transporter of the levan PUL, Bacteroides thetaiotaomicron VPI-5482; numbers count on: the mature protein; In closed states seen by cryo-EM the plug domain has no density; source: endogenous, B. thetaiotaomicron VPI-5482 (Bt1762-his strain) grown on MM fructose; outer membrane extracted with LDAO; purified with His-tagged Bt1762 (IMAC, SEC)
T1 sequence (looked up): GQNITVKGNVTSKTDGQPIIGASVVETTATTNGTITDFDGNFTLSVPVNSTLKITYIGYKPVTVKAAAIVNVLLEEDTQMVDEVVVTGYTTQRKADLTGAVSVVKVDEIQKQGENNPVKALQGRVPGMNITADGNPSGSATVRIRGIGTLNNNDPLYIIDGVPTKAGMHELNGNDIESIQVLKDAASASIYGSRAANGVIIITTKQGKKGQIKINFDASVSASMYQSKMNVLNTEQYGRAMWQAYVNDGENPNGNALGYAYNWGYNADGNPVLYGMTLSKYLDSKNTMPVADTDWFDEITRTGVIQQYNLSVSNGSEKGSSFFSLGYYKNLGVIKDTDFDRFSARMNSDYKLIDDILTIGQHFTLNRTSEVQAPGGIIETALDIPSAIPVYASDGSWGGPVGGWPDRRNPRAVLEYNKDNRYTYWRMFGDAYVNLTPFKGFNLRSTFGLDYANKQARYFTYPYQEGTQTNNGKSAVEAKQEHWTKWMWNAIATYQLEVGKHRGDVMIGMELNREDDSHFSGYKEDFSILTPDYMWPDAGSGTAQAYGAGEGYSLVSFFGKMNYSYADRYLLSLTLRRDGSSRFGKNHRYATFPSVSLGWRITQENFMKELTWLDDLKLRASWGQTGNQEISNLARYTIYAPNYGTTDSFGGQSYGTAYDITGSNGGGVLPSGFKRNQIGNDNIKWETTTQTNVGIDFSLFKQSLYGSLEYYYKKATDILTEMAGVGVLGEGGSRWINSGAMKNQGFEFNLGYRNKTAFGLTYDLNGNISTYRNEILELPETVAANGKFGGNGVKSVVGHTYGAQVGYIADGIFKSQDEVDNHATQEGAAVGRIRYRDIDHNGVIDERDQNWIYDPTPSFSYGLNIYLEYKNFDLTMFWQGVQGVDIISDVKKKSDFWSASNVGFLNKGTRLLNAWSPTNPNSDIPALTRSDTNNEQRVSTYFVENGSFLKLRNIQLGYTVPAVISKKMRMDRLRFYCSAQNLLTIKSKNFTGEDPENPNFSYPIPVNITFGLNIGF

[3] = target: the molecule itself; experiment: as above

Molecule: O=C(CO)C(O)C(O)C(O)CO (centres unmarked) [Frc]
Optical density at 600 nm ([1]; time 00:00:00, carbon source 0.5 %): 0.303 and 0.324 and 0.321 and 0.418 and 0.289 and 0.311 and 0.334 and 0.296 and 0.325 | Optical density at 600 nm ([1]; time 00:30:00, carbon source 0.5 %): 0.171 (2×) and 0.174 (2×) and 0.172 (2×) and 0.177 and 0.173 and 0.181 | Optical density at 600 nm ([1]; time 01:00:00, carbon source 0.5 %): 0.178 (2×) and 0.179 (2×) and 0.177 (2×) and 0.18 (2×) and 0.182 | Optical density at 600 nm ([1]; time 01:30:00, carbon source 0.5 %): 0.186 and 0.189 (2×) and 0.187 (2×) and 0.188 (2×) and 0.184 and 0.19 | Optical density at 600 nm ([1]; time 02:00:00, carbon source 0.5 %): 0.194 and 0.197 and 0.196 (2×) and 0.199 (2×) and 0.191 and 0.202 and 0.198 | Optical density at 600 nm ([1]; time 02:30:00, carbon source 0.5 %): 0.203 and 0.21 and 0.212 and 0.211 and 0.198 and 0.204 and 0.215 and 0.206 and 0.214 | Optical density at 600 nm ([1]; time 03:00:00, carbon source 0.5 %): 0.211 and 0.217 and 0.232 and 0.225 and 0.205 and 0.212 and 0.229 and 0.214 and 0.226 | Optical density at 600 nm ([1]; time 03:30:00, carbon source 0.5 %): 0.22 and 0.224 (2×) and 0.261 and 0.24 (2×) and 0.214 and 0.221 and 0.255 | Optical density at 600 nm ([1]; time 04:00:00, carbon source 0.5 %): 0.228 and 0.23 (2×) and 0.304 and 0.261 (2×) and 0.22 and 0.234 and 0.284 | Optical density at 600 nm ([1]; time 04:30:00, carbon source 0.5 %): 0.233 and 0.24 and 0.355 and 0.279 and 0.223 and 0.252 and 0.313 and 0.238 and 0.283 | Optical density at 600 nm ([1]; time 05:00:00, carbon source 0.5 %): 0.238 and 0.259 and 0.442 and 0.309 and 0.227 and 0.278 and 0.351 and 0.243 and 0.306 | Optical density at 600 nm ([1]; time 05:30:00, carbon source 0.5 %): 0.249

binding result [2]: binds
B1: Bt1762 (SusD) of the Bacteroides thetaiotaomicron levan utilisation locus, with C-terminal His6 tag (natural protein, UniProt Q8A6W4 19-570, looked up)
chain: CDDFLDRQVPQGIVTGDQIASPEYVDNLVISAYAIWATGDDINSSFSLWNYDVRSDDCYKGGSGTEDGGVFNALEISKGINTTDWNINDIWKRLYQCITRANTALQSLDQMDEKTYPLKNQRIAEMRFLRGHAHFMLKQLFKKIVIVNDENMEPDAYNELSNTTYTNDEQWQKIADDFQFAYDNLPEVQIEKGRPAQAAAAAYLAKTYLYKAYRQDGADNALTGINEEDLKQVVKYTDPLIMAKGGYGLETDYSMNFLPQYENGAESVWAIQYSINDGTYNGNLNWGMGLTTPQILGCCDFHKPSQNLVNAFKTDSQGKPLFSTYDNENYEVATDNVDPRLFHTVGMPGFPYKYNEGYIIQKNDDWSRSKGLYGYYVSLKENVDPDCDCLKKGSYWASSLNHIVIRYADVLLMRAEALIQLNDGRITDAISLINEVRSRAAGSTMLIFNYKEDYGVNFKVTPYDLKAYAQDEAMKMLKWERRVEFGMESSRFFDLVRWGEAKDVINAYYVTEASRCSIYKNAGFTENKNEYLPVPFEQISASNGNYTQNFGW
modifications: lipid anchor (lipoprotein)
notes: numbers count on: the mature protein; His6 tag is chromosomal; also called SusD lid; WT (Bt1762-his strain); source: B. thetaiotaomicron VPI-5482 (Bt1762-his strain) grown on MM fructose; outer membrane extracted with LDAO; purified with Bt1763 (IMAC, SEC); not shown: His6, C-terminal, kept

B2: Bt1762-Bt1763 SusCD complex (complex, Bacteroides thetaiotaomicron)
chain 1: CDDFLDRQVPQGIVTGDQIASPEYVDNLVISAYAIWATGDDINSSFSLWNYDVRSDDCYKGGSGTEDGGVFNALEISKGINTTDWNINDIWKRLYQCITRANTALQSLDQMDEKTYPLKNQRIAEMRFLRGHAHFMLKQLFKKIVIVNDENMEPDAYNELSNTTYTNDEQWQKIADDFQFAYDNLPEVQIEKGRPAQAAAAAYLAKTYLYKAYRQDGADNALTGINEEDLKQVVKYTDPLIMAKGGYGLETDYSMNFLPQYENGAESVWAIQYSINDGTYNGNLNWGMGLTTPQILGCCDFHKPSQNLVNAFKTDSQGKPLFSTYDNENYEVATDNVDPRLFHTVGMPGFPYKYNEGYIIQKNDDWSRSKGLYGYYVSLKENVDPDCDCLKKGSYWASSLNHIVIRYADVLLMRAEALIQLNDGRITDAISLINEVRSRAAGSTMLIFNYKEDYGVNFKVTPYDLKAYAQDEAMKMLKWERRVEFGMESSRFFDLVRWGEAKDVINAYYVTEASRCSIYKNAGFTENKNEYLPVPFEQISASNGNYTQNFGW
chain 2: GQNITVKGNVTSKTDGQPIIGASVVETTATTNGTITDFDGNFTLSVPVNSTLKITYIGYKPVTVKAAAIVNVLLEEDTQMVDEVVVTGYTTQRKADLTGAVSVVKVDEIQKQGENNPVKALQGRVPGMNITADGNPSGSATVRIRGIGTLNNNDPLYIIDGVPTKAGMHELNGNDIESIQVLKDAASASIYGSRAANGVIIITTKQGKKGQIKINFDASVSASMYQSKMNVLNTEQYGRAMWQAYVNDGENPNGNALGYAYNWGYNADGNPVLYGMTLSKYLDSKNTMPVADTDWFDEITRTGVIQQYNLSVSNGSEKGSSFFSLGYYKNLGVIKDTDFDRFSARMNSDYKLIDDILTIGQHFTLNRTSEVQAPGGIIETALDIPSAIPVYASDGSWGGPVGGWPDRRNPRAVLEYNKDNRYTYWRMFGDAYVNLTPFKGFNLRSTFGLDYANKQARYFTYPYQEGTQTNNGKSAVEAKQEHWTKWMWNAIATYQLEVGKHRGDVMIGMELNREDDSHFSGYKEDFSILTPDYMWPDAGSGTAQAYGAGEGYSLVSFFGKMNYSYADRYLLSLTLRRDGSSRFGKNHRYATFPSVSLGWRITQENFMKELTWLDDLKLRASWGQTGNQEISNLARYTIYAPNYGTTDSFGGQSYGTAYDITGSNGGGVLPSGFKRNQIGNDNIKWETTTQTNVGIDFSLFKQSLYGSLEYYYKKATDILTEMAGVGVLGEGGSRWINSGAMKNQGFEFNLGYRNKTAFGLTYDLNGNISTYRNEILELPETVAANGKFGGNGVKSVVGHTYGAQVGYIADGIFKSQDEVDNHATQEGAAVGRIRYRDIDHNGVIDERDQNWIYDPTPSFSYGLNIYLEYKNFDLTMFWQGVQGVDIISDVKKKSDFWSASNVGFLNKGTRLLNAWSPTNPNSDIPALTRSDTNNEQRVSTYFVENGSFLKLRNIQLGYTVPAVISKKMRMDRLRFYCSAQNLLTIKSKNFTGEDPENPNFSYPIPVNITFGLNIGF
modifications: lipid anchor (lipoprotein)
notes: Bt1762 (SusD), Bacteroides thetaiotaomicron VPI-5482; as m1; numbers count on: the mature protein; Bt1763 (SusC), Bacteroides thetaiotaomicron VPI-5482; as m2; One SusCD unit (one Bt1762, one Bt1763); two such units form the SusC2D2 dimer; also called Bt1762-63; BT1762-63; source: B. thetaiotaomicron VPI-5482 (Bt1762-his strain) grown on MM fructose; outer membrane extracted with LDAO; purified …
stoichiometry N [3]: 2
